Measurements as given in patent US12528818B2, “Compositions and methods for inhibition of RAS” (Leidos Biomedical Research, Inc., priority 2021, dated 2026).
Where two headings read alike, the source gives them in different places.

Tested on: pERK in NCI-H358 cells
Test: Cell-based pERK HTRF assay (pERK inhibition in H358 cells)
Conditions: pERK inhibition IC50, NCI-H358 cells, 30 min incubation, read-out: PERK in H358 cell
Description: On Day 1, cells (NCI-H358) were seeded into 96-well plates at 4×10^4 cells/well in complete growth media (RPMI, 10% FBS).
The source plate was created with compounds diluted in media at 5-fold the final assay concentration. […] 20 μL was transferred onto the cell plates (final volume in wells was 100 μL). Plates were harvested after 30 min incubation by aspirating media and adding kit-supplied 1× supplemented lysis buffer to all wells (75 μl per well). Plates were then placed on a plate shaker and incubated at 850 rpm for an additional 30 min.
Antibody mixture solution was prepared by diluting aliquoted d2 and Eu Cryptate antibodies 1:20 in kit supplied detection buffer, then mixed the diluted antibodies solutions (1:1 v:v).
Samples were homogenized by pipetting up and down and then transferred (16 μL of cell lysates) from the 96-well cell culture plate to two wells of the HTRF 384-well detection plate containing the antibody solution. Plates were centrifuged (524 g for 1 min) and allowed to incubate between 4 and 24 h at room temperature. Maximum signal is reached after 4 h incubation time and remains stable over a period of 24 hours. Therefore, readings can be made between 4 and 24 h of incubation.

Row | IC50 (Homo sapiens, NCI-H358, 0.5 h) | IC50 | SMILES
1 | < 0.1 µM |  | C=CC(=O)N1CCC(N(C)c2nc(OC[C@@H]3CCCN3C)nc3c(F)c(-c4ccc(F)c5sc(N)c(C#N)c45)c(C(F)(F)F)cc23)C1COC (stereo partly drawn) [Compound 426, 4-(4-((1-acryloyl-2-(methoxymethyl)pyrrolidin-3-yl)(methyl)amino)-8-fluoro-2-(((S)-1-methylpyrrolidin-2-yl)methoxy)-6-(trifluoromethyl)quinazolin-7-yl)-2-amino-7-fluorobenzo[b]thiophene-3-carbonitrile]
2 | 0.1 to 1 µM |  | C=CC(=O)N1CC(N(C)c2nc(OCC34CCCN3CC(F)(F)C4)nc3c(F)c(-c4ccc(F)c5sc(N)nc45)c(C(F)(F)F)cc23)C1 (centres unmarked) [Compound 187]
3 | < 0.1 µM |  | C=CC(=O)N1CCN(c2nc(OC[C@@H]3CCCN3C)nc3c(F)c(-c4ccc(F)c5sc(N)nc45)c(Cl)cc23)CC1 [Compound 44]
4 | 0.1 to 1 µM |  | CC#CC(=O)N1CC(N(C)c2nc(OC[C@@H]3CCCN3C)nc3c(F)c(-c4ccc(F)c5sc(N)nc45)c(C(F)(F)F)cc23)C1 [Compound 129]
5 | > 1 µM |  | C=CC(=O)N1CC(N(c2nc(OCC34CCCN3CCC4)nc3c(F)c(-c4ccc(F)c5sc(N)nc45)c(C(F)(F)F)cc23)C2CC2)C1 [Compound 152]
6 | < 0.1 µM |  | C=CC(=O)N1CCN(c2c(C#N)c(OC[C@@]34CCCN3C[C@H](F)C4)nc3c(F)c(-c4ccc(F)c5sc(N)nc45)c(Cl)cc23)CC1 [Compound 200]
7 | < 0.1 µM |  | C=CC(=O)N1C[C@H](C)N(c2nc(OC[C@@]34CCCN3C[C@H](F)C4)nc3c(F)c(-c4ccc(F)c5sc(N)c(C#N)c45)c(C(F)(F)F)cc23)C[C@@H]1C [Compound 349]
8 | < 0.1 µM |  | C=CC(=O)N1C[C@@H](F)[C@@H](N(CC)c2nc(OC[C@@]34CCCN3C[C@H](F)C4)nc3cc(-c4ccc(F)c5sc(N)c(C#N)c45)c(C(F)(F)F)cc23)C1 [Compound 375]
9 | 0.1 to 1 µM |  | C=CC(=O)N1CC[C@H](N(C)c2nc(OC[C@@]34CCCN3C[C@H](F)C4)nc3c(F)c(-c4ccc(F)c5sc(N)nc45)c(Cl)cc23)C1 [Compound 185]
10 | < 0.1 µM |  | C=CC(=O)N1CCC(N(C)c2nc(OC[C@@H]3CC4(CC4)CN3C)nc3c(F)c(-c4ccc(F)c5sc(N)c(C#N)c45)c(C(F)(F)F)cc23)[C@H]1C (some centres unmarked) [Compound 409]
11 | < 0.1 µM |  | C=CC(=O)N1C[C@@H](F)[C@@H](N(C)c2nc(OC[C@@]34CCCN3C[C@H](F)C4)nc3c(F)c(-c4ccc(F)c5sc(N)nc45)c(C(F)(F)F)cc23)C1 [Compound 279]
12 | 0.1 to 1 µM |  | N#CN1CC(Nc2nc(OCC34CCCN3CCC4)nc3c(F)c(-c4ccc(F)c5sc(N)nc45)c(Cl)cc23)C1 [Compound 58]
13 | < 0.1 µM |  | C=CC(=O)N1C[C@@H](F)[C@@H](N(C)c2nc(OC[C@@H]3CC4(CC4)CN3C)nc3cc(-c4ccc(F)c5sc(N)nc45)c(C(F)(F)F)cc23)C1 [Compound 351]
14 | < 0.1 µM |  | C=CC(=O)N1CCC(N(CC)c2nc(OC[C@@H]3C[C@@H](OC)CN3C)nc3c(F)c(-c4ccc(F)c5sc(N)c(C#N)c45)c(C(F)(F)F)cc23)[C@H]1COC (some centres unmarked) [Compound 427]
15 | < 0.1 µM |  | C=CC(=O)N1C[C@H](C)N(c2nc(OC[C@]34CCCN3C[C@H](F)C4)nc3c(F)c(-c4ccc(F)c5sc(N)nc45)c(C(F)(F)F)cc23)C[C@H]1C [Compound 204, 1-((2R,5S)-4-(7-(2-amino-7-fluorobenzo[d]thiazol-4-yl)-8-fluoro-2-(((2R,7aR)-2-fluorotetrahydro-1H-pyrrolizin-7a(5H)-yl)methoxy)-6-(trifluoromethyl)quinazolin-4-yl)-2,5-dimethylpiperazin-1-yl)prop-2-en-1-one]
16 | < 0.1 µM |  | C=CC(=O)N1CCN(c2nc(OCC34CCCN3C[C@H](OC)C4)nc3c(F)c(-c4ccc(F)c5sc(N)nc45)c(C(F)(F)F)cc23)CC1 (some centres unmarked) [Compound 209]
17 | < 0.1 µM |  | C=CC(=O)N1C[C@@H](F)[C@@H](N(CC)c2nc(OCC34CCCN3CCC4)nc3cc(-c4ccc(F)c5sc(N)c(C#N)c45)c(C(F)(F)F)cc23)C1 [Compound 376]
18 | > 1 µM |  | CN1CCC[C@H]1COc1nc(NC2CCN(C#N)CC2)c2cc(Cl)c(-c3ccc(F)c4sc(N)nc34)c(F)c2n1 [Compound 55]

Row | IC50 (Homo sapiens, NCI-H358, 0.5 h) | IC50 | SMILES
19 | 0.1 to 1 µM |  | C=CC(=O)N1CCN(c2nc(OCC34CCCN3CCC4)nc3c(F)c(-c4ccc(F)c5sc(N)nc45)c(C(F)F)cc23)CC1 [Compound 246]
20 | < 0.1 µM |  | C=CC(=O)N1CCC(N(CC)c2nc(OC[C@@]34CCCN3C[C@H](F)C4)nc3c(C#N)c(-c4ccc(F)c5sc(N)c(C#N)c45)c(Cl)cc23)[C@H]1C (some centres unmarked) [Compound 411]
21 |  | > 1 µM | C=CC(=O)N1C[C@H](N(C)c2ncnc3c(F)c(-c4ccc(F)c5sc(N)nc45)c(C(F)(F)F)cc23)C[C@H]1C (atropisomer, axis not shown) [Compound 251]
22 | > 1 µM |  | C=CC(=O)N1CCC(N(C)c2nc(OC)nc3c(F)c(-c4ccc(F)c5sc(N)c(C#N)c45)ccc23)[C@H]1C (some centres unmarked) [Compound 461]
23 | < 0.1 µM |  | C=CC(=O)N1C[C@@H](F)[C@@H](N(C)c2nc(OC[C@@]34CCCN3C[C@H](F)C4)nc3c(F)c(-c4ccc(F)c5sc(N)nc45)ccc23)C1 [Compound 353]
24 | < 0.1 µM |  | C=CC(=O)N1CC[C@@H](N(C)c2nc(OC[C@@]34CCCN3C[C@H](F)C4)nc3c(F)c(-c4ccc(F)c5sc(N)c(C#N)c45)c(C(F)(F)F)cc23)C1 [Compound 253]
25 | < 0.1 µM |  | C=CC(=O)N1CC(N(C)c2nc(OC[C@@]34CCCN3C[C@H](F)C4)nc3c(F)c(-c4ccc(F)c5sc(N)nc45)c(Cl)cc23)C1 [Compound 247]
26 | < 0.1 µM |  | C=CC(=O)N1CCN(c2nc(OC[C@@H]3CCCN3CCF)nc3c(F)c(-c4ccc(F)c5sc(N)nc45)c(C(F)(F)F)cc23)CC1 [Compound 153]
27 | < 0.1 µM |  | C=CC(=O)N1C[C@H](C)N(c2nc(OC[C@@]34CCCN3C[C@H](F)C4)nc3c(F)c(-c4ccc(F)c5sc(N)c(C#N)c45)c(F)cc23)C[C@H]1C [Compound 333]
28 | < 0.1 µM |  | C=CC(=O)N1CCN(c2nc(OC[C@@H]3CCCN3CC(F)F)nc3c(F)c(-c4ccc(F)c5sc(N)nc45)c(C(F)(F)F)cc23)CC1 [Compound 156]
29 | 0.1 to 1 µM |  | C=CC(=O)N1CC[C@H](N(C)c2nc(OC[C@@]34CCCN3C[C@H](F)C4)nc3c(F)c(-c4ccc(F)c5sc(N)nc45)c(C(F)(F)F)cc23)C1 [Compound 188]
30 |  | < 0.1 µM | C=CC(=O)N1CCC[C@@H](N(C)c2nc(OC[C@@]34CCCN3C[C@H](F)C4)nc3c(F)c(-c4ccc(F)c5sc(N)nc45)c(C(F)(F)F)cc23)C1 [Compound 244]
31 | < 0.1 µM |  | C=CC(=O)N1C[C@H](C)N(c2nc(OCC3(CN4CC[C@@H](F)C4)CC3)nc3c(F)c(-c4ccc(F)c5sc(N)nc45)c(C(F)(F)F)cc23)C[C@H]1C [Compound 286]
32 | < 0.1 µM |  | C=CC(=O)N1C[C@H](C)N(c2nc(OC[C@@]34CCCN3C[C@H](F)C4)nc3c(Cl)c(-c4ccc(F)c5sc(N)c(C#N)c45)c(C#N)cc23)C[C@H]1C [Compound 422]
33 | < 0.1 µM |  | C=CC(=O)N1CCN(c2nc(OCC34CCCN3CCC4)nc3c(F)c(-c4ccc(F)c5sc(N)nc45)c(Cl)cc23)CC1 [Compound 67]
34 | 0.1 to 1 µM |  | C=CC(=O)N1CC[C@@H]2[C@H]1CN2c1nc(OCC23CCCN2CCC3)nc2c(F)c(-c3ccc(F)c4sc(N)nc34)c(C(F)(F)F)cc12 [Compound 166]
35 | 0.1 to 1 µM |  | C#CC(=O)N1CC(Nc2nc(OC[C@@H]3CCCN3C)nc3c(F)c(-c4ccc(F)c5sc(N)nc45)c(Cl)cc23)C1 [Compound 81]
